Data as given in patent publication US20120039954A1, “METHOD OF TREATING INSOMNIA” (SOMNUS THERAPEUTICS, INC., priority 2008, published 2012).

Experiment: Drug plasma levels in the Example 9 trial
Conditions: 10 mg single oral dose
Source text: Non-elderly adults were enrolled in a cross-over, double-blind trial. […] Drug plasma levels were obtained at the same times.

CCN(C(C)=O)c1cccc(-c2ccnc3c(C#N)cnn23)c1 [zaleplon, N-[3-(3-cyanopyrazole[1,5-a]pyrimidin-7-yl)phenyl]-N-ethylacetamide]
Time post-dose at which drug plasma levels peaked: 1.5 h
